The structures appear in SMILES notation.

The assay relates to NCI-H295R. The assay is described as follows: IC50 (antiproliferative, ATP content). The following applies: 48 h. The gist of the method:
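Following overnight culture of adrenocortical carcinoma cells (1500 per well) in 1536-well plates with serum-free ITS-supplemented DMEM, library compounds were pin-transferred at 8 final concentrations from 0.6 nM to 46 µM. Incubation lasted 48 h at 37 °C, 5% CO2, and the CellTiter-Glo signal was read after 20 min at room temperature. Data were fitted with a four-parameter logistic model. Each IC50 came from that fit after normalisation to vehicle and positive-control wells, and compounds without a concentration response were reported as above the top dose.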
`Cl.c1ccc(CN(CC2=NCCN2)c2ccccc2)cc1` returned an IC50 greater than 46 µM. Then `O=C1/C(=C2\Nc3ccccc3C2=O)Nc2ccccc21`, with greater than 46 µM. Molecule `C=C[C@]1(C)C[C@@H](OC(=O)CSC(C)(C)CNC(=O)[C@H](N)C(C)C)[C@]2(C)[C@H](C)CC[C@]3(CCC(=O)[C@H]32)[C@@H](C)[C@@H]1O` registered an IC50 greater than 46 µM.

As for `NC(=O)CS(=O)C(c1ccccc1)c1ccccc1` (stereo not drawn), the IC50 was greater than 46 µM. For `CCCN1C[C@H](CSC)C[C@@H]2c3cccc4[nH]cc(c34)C[C@H]21.CS(=O)(=O)O`, the IC50 is greater than 46 µM. `CC(=O)Oc1ccccc1C(=O)O` yielded a half-inhibitory concentration (IC50) greater than 46 µM.

In turn, `NCC[C@H](O)C(=O)N[C@@H]1C[C@H](N)[C@@H](O[C@H]2O[C@H](CN)[C@@H](O)[C@H](O)[C@H]2O)[C@H](O)[C@H]1O[C@H]1O[C@H](CO)[C@@H](O)[C@H](N)[C@H]1O` had a half-inhibitory concentration (IC50) greater than 46 µM. Then `CC(O)CN(C)C` (stereo not drawn), with greater than 46 µM. `CC(=O)OO` showed an IC50 greater than 46 µM. With `O=C1c2ccccc2C(=O)c2c1ccc(O)c2O` the figure was greater than 46 µM. Molecule `COc1ccc(-c2cc(=O)c3c(O)cc(O[C@@H]4O[C@H](CO[C@@H]5O[C@@H](C)[C@H](O)[C@@H](O)[C@H]5O)[C@@H](O)[C@H](O)[C@H]4O)cc3o2)cc1O` displayed a 50% inhibitory concentration (IC50) greater than 46 µM. With `CC1CCCCN1CCCOC(=O)c1ccccc1.Cl` (stereo not drawn) the figure was greater than 46 µM; with `c1ccc2[nH]c(-c3cscn3)nc2c1`, greater than 46 µM.

In the case of `O=C1NN=C(C2=CC=C(C=C2)N/N=C(C#N)/C#N)[C@@H](C1)C`, the IC50 was greater than 46 µM. Then `O=Cc1ccco1`, with greater than 46 µM. With `CC(C)c1c(CN(C)C(C)Cc2ccccc2)n(C)n(-c2ccccc2)c1=O` (stereo not drawn), the IC50 was greater than 46 µM. As for `O=c1cc[nH]c(=S)[nH]1`, the IC50 is greater than 46 µM.

As for `CCCNC(=O)NS(=O)(=O)c1ccc(Cl)cc1`, the IC50 was greater than 46 µM. Regarding `O=C3N1/C(=C(/C)CS[C@@H]1[C@@H]3NC(=O)[C@H](N)c2ccccc2)C(O)=O`, the half-inhibitory concentration (IC50) was greater than 46 µM. Regarding `COc1ccc(NS(=O)(=O)c2ccc(N)cc2)nn1`, the IC50 is greater than 46 µM. `CN(C)[C@@H]1C(O)=C(C(N)=O)C(=O)[C@@]2(O)C(O)=C3C(=O)c4c(O)cccc4[C@@](C)(O)[C@H]3[C@H](O)[C@@H]12.O.O` returned a half-maximal inhibitory concentration (IC50) greater than 46 µM. In turn, `CC(C)C(Br)C(=O)NC(N)=O` (stereo not drawn) showed an IC50 greater than 46 µM. With `CCCC(=O)O[C@]1(C(=O)CCl)[C@@H](C)C[C@H]2[C@@H]3CCC4=CC(=O)C=C[C@]4(C)[C@@]3(F)C(=O)C[C@@]21C`, the concentration for half-maximal inhibition (IC50) is greater than 46 µM. Consider `C[C@H]1O[C@H](OC[C@@H]2O[C@H](Oc3c(-c4ccc(OCCO)c(OCCO)c4)oc4cc(OCCO)cc(O)c4c3=O)[C@@H](O)[C@H](O)[C@H]2O)[C@@H](O)[C@@H](O)[C@@H]1O`, for which the 50% inhibitory concentration (IC50) was greater than 46 µM. The molecule `O=C(C=Cc1ccccc1)OCc1ccccc1` had a half-inhibitory concentration (IC50) greater than 46 µM. On to `CC(=O)OCC(=O)[C@H]2CC[C@H]3[C@@H]4CC\C1=C\C(=O)CC[C@]1(C)[C@H]4CC[C@]23C`, for which the IC50 is greater than 46 µM. Consider `Cc1ccnc2c1NC(=O)c1cccnc1N2C1CC1`, for which the IC50 was greater than 46 µM. In turn, `O=[N+]([O-])c1ccccc1` had an IC50 greater than 46 µM. `CCC1(c2ccccc2)C(=O)NCNC1=O` had an IC50 greater than 46 µM.

Regarding `CCNCC.O=S(=O)(O)c1cc(O)ccc1O`, the IC50 is greater than 46 µM. As for `O=[C@](O)[C@@H]2CC1=C(CN2C([C@H](C)N[C@@H](CCC3=CC=CC=C3)[C@](OCC)=O)=O)C=C(OC)C(OC)=C1.Cl`, the IC50 is greater than 46 µM. Molecule `O=C(O)c1ccc(OCCn2ccnc2)cc1` returned a concentration for half-maximal inhibition (IC50) greater than 46 µM.

In turn, `Cc1ccsc1/C=C/C1=NCCCN1C.O=C(O)[C@@H](O)[C@H](O)C(=O)O` returned an IC50 greater than 46 µM.

Turning to `COc1ccc(OC)c(C(O)CNC(=O)CN)c1.Cl` (stereo not drawn), the IC50 is greater than 46 µM.

`F[Si-2](F)(F)(F)(F)F.[NH4+].[NH4+]` came in with an IC50 greater than 46 µM. `CCCCCCCCCCCCCCCC[N+](C)(C)CCN(Cc1ccc(OC)cc1)c1ncccn1.[Br-]` showed an IC50 greater than 46 µM.

Molecule `O=C1O[C@H]([C@@H](O)CO)C(O)=C1O` registered an IC50 greater than 46 µM.

With `N#CC1(N2CCCCC2)CCCCC1`, the concentration for half-maximal inhibition (IC50) was greater than 46 µM. Turning to `COc1ccc(CN2CCNCC2)c(OC)c1OC.Cl.Cl`, the 50% inhibitory concentration (IC50) is greater than 46 µM.

`C#C[C@]1(O)C=C[C@H]2[C@@H]3CCC4=CC(=O)CC[C@@H]4[C@H]3CC[C@@]21CC`: the IC50 was greater than 46 µM. Turning to `CCn1cc(C(=O)O)c(=O)c2cnc(N3CCCC3)nc21`, the concentration for half-maximal inhibition (IC50) is greater than 46 µM. On to `N[C@@H](COP(=O)(O)O)C(=O)O`, for which the IC50 is greater than 46 µM. Then `CC1=CC[C@@H](CC1)[C@@](O)(C)CC\C=C(/C)C`, with greater than 46 µM; and `O=[C@](COC(C(C)(C)C)=O)[C@@H]2[C@](CC1)(C)[C@](CC2)([H])[C@@](CC4)([H])[C@@]1([H])[C@](CC3)(C)C4=CC3=O`, with greater than 46 µM; and `COC(=O)[C@H](Cc1ccccc1)NC(=O)[C@@H](N)CC(=O)O`, with greater than 46 µM. Then `CC(O)CN(CCN(CC(C)O)CC(C)O)CC(C)O` (stereo not drawn), with greater than 46 µM; and `CC(Cc1ccccc1)NCc1ccccc1Cl.Cl` (stereo not drawn), with greater than 46 µM; and `CCOC(=O)c1ccccc1C(=O)OCC`, with greater than 46 µM. `O=C(O)c1ccccn1` yielded an IC50 greater than 46 µM. With `CCOc1ccc(NC(C)=O)cc1`, the IC50 is greater than 46 µM. Consider `N=C(N)NCC1COc2ccccc2O1` (stereo not drawn), for which the IC50 was greater than 46 µM. With `O=C(C2=CC=CC=C2)O[C@H]1C[C@H](CC3)N(C)[C@H]3[C@H]1[C@@](O)=O`, the IC50 is greater than 46 µM. Then `CN1C(=O)C(C)(C2=CCCCC2)C(=O)N=C1O` (stereo not drawn), with greater than 46 µM.

As for `CN1CCN(c2cc3c(cc2F)c(=O)c(C(=O)O)cn3-c2ccc(F)cc2)CC1.Cl`, the IC50 is greater than 46 µM. For the molecule `COc1ccc(C2C(=O)c3ccccc3C2=O)cc1`, the 50% inhibitory concentration (IC50) was greater than 46 µM. `Cc1ccc(S(=O)(=O)[O-])cc1C.[Na+]` yielded a concentration for half-maximal inhibition (IC50) greater than 46 µM. For `CN1c2c(O)nc(N)nc2NCC1CNc1ccc(C(=O)NC(CCC(=O)[O-])C(=O)[O-])cc1.[Na+].[Na+]` (stereo not drawn), the IC50 is greater than 46 µM. Then `CCN(CC)CCNC(=O)c1cc(S(C)(=O)=O)ccc1OC.Cl`, with greater than 46 µM; and `CC(=O)SC[C@H](Cc1ccccc1)C(=O)NCC(=O)OCc1ccccc1`, with greater than 46 µM; and `C[C@](N)(Cc1ccc(O)c(O)c1)C(=O)O.C[C@](N)(Cc1ccc(O)c(O)c1)C(=O)O.O.O.O`, with greater than 46 µM. For `O=C1CCO1`, the 50% inhibitory concentration (IC50) is greater than 46 µM. The molecule `C=C(C)C1CC=C(C)CC1` (stereo not drawn) displayed an IC50 greater than 46 µM. With `NS(=O)(=O)c1cc2c(cc1Cl)NC(C1CC3C=CC1C3)NS2(=O)=O` (stereo not drawn) the figure was greater than 46 µM. In turn, `NCc1ccccc1Sc1ccccc1CO` showed a 50% inhibitory concentration (IC50) greater than 46 µM.

Turning to `COc1ccc(C(CN(C)C)C2(O)CCCCC2)cc1` (stereo not drawn), the 50% inhibitory concentration (IC50) was greater than 46 µM.

Molecule `CNNCc1ccc(C(=O)NC(C)C)cc1.Cl` gave a 50% inhibitory concentration (IC50) greater than 46 µM. `Cl.C/C(C)=N\Nc2c(cnc1c2cnn1CC)C(=O)OCC` showed an IC50 greater than 46 µM. The molecule `CCCC(=O)[O-].[Na+]` showed an IC50 greater than 46 µM. The molecule `C1COC(NC(C2CC2)C2CC2)=N1` returned a 50% inhibitory concentration (IC50) greater than 46 µM.

Consider `C[C@]43CCC(=O)\C=C4\CC[C@@H]1[C@@H]3CC[C@]2(C)[C@H](O)CC[C@@H]12`, for which the IC50 was greater than 46 µM. In the case of `Cc1c(NC(C)C)c(=O)n(-c2ccccc2)n1C`, the concentration for half-maximal inhibition (IC50) was greater than 46 µM.

For the molecule `N=C(N)NCCCC[C@@H]1NC(=O)CCSSC[C@@H](C(N)=O)NC(=O)[C@@H]2CCCN2C(=O)[C@H](Cc2c[nH]c3ccccc23)NC(=O)[C@H](CC(=O)O)NC(=O)CNC1=O`, the IC50 was greater than 46 µM. With `O=[N+]([O-])c1ccc(F)c([N+](=O)[O-])c1`, the half-inhibitory concentration (IC50) is greater than 46 µM.

For `NNc1nnc(NN)c2ccccc12`, the IC50 was greater than 46 µM. For `CCCCCNC(=N)N/N=C/c1c[nH]c2ccc(OC)cc12`, the IC50 is greater than 46 µM.

For `O=c1[nH]c(=O)n([C@H]2C[C@H](O)[C@@H](CO)O2)cc1I`, the half-maximal inhibitory concentration (IC50) was greater than 46 µM. For `CC1CCC(NC(=O)N(CCCl)N=O)CC1` (stereo not drawn), the IC50 was greater than 46 µM.

On to `NCCc1ccc(O)c(O)c1`, for which the IC50 is greater than 46 µM. Then `CCc1c2c(nc3ccc(OC(=O)N4CCC(N5CCCCC5)CC4)cc13)-c1cc3c(c(=O)n1C2)COC(=O)[C@]3(O)CC.Cl`, with greater than 46 µM; and `COc1cc2c(cc1OC)C(=O)C(CC1CCN(Cc3ccccc3)CC1)C2.Cl` (stereo not drawn), with greater than 46 µM; and `COP(=S)(OC)SCN1C(=O)c2ccccc2C1=O`, with greater than 46 µM. Molecule `C=CCc1ccc(O)c(OC)c1` registered a half-maximal inhibitory concentration (IC50) greater than 46 µM. In the case of `CC(C)CC(N(C)C)C1(c2ccc(Cl)cc2)CCC1.Cl` (stereo not drawn), the IC50 was greater than 46 µM. As for `COP(=O)(OC)C(O)C(Cl)(Cl)Cl` (stereo not drawn), the half-inhibitory concentration (IC50) was greater than 46 µM. `Cc1ncc(C[n+]2csc(CCO)c2C)c(N)n1.Cl.[Cl-]` displayed a half-maximal inhibitory concentration (IC50) greater than 46 µM. `Cc1ccc(C)c(OCCCC(C)(C)C(=O)O)c1`: the IC50 was greater than 46 µM.

`[Na+].[O-]Cl` displayed an IC50 greater than 46 µM. Consider `CN1C(=O)CN=C(c2ccccc2)c2cc([N+](=O)[O-])ccc21`, for which the half-maximal inhibitory concentration (IC50) was greater than 46 µM. `C[C@]12CCC(=O)C[C@@H]1CC[C@@H]1[C@@H]2CC[C@]2(C)[C@@H](O)CC[C@@H]12` showed an IC50 greater than 46 µM. The molecule `N#Cc1ccc2c(c1)N(CCCN1CCC(O)CC1)c1ccccc1S2` yielded a concentration for half-maximal inhibition (IC50) greater than 46 µM. The molecule `BrC=7Nc1cccc\6c1C=7C[C@@H]2C/6=C/[C@H](CN2C)C(=O)N[C@@]3(O[C@]5(O)N(C3=O)[C@@H](CC(C)C)C(=O)N4CCC[C@H]45)C(C)C` gave an IC50 greater than 46 µM. The molecule `CC/C=C\C/C=C\C/C=C\CCCCCCCC(=O)O` yielded an IC50 greater than 46 µM. The molecule `CCN(CC)S(=O)(=O)c1ccc(C(=O)O)cc1` yielded an IC50 greater than 46 µM.

For orientation: IC50 means the concentration that inhibits the measured activity by half. High values mean a need for much substance, low ones inhibition by little substance.

Source of the values: the supplement of paper PMC3493320.
